≈ marks a conversion by molar mass, not a printed value.
Assays:
[1] = system: Escherichia coli (E. coli) BAS849; assay: Antibacterial activity, microbroth dilution MIC (Table 1); format: cell-based; conditions: microbroth dilution, super sensitive Gram-negative E. coli BAS849, read-out: MIC, BAS849
In short: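 Microbroth dilution was used. MIC, in μg/mL, is the lowest drug concentration preventing macroscopically visible growth under the test conditions.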

[2] = system: Staphylococcus aureus (S. aureus) 29213; assay: as above; format: cell-based; conditions: microbroth dilution, Gram-positive S. aureus 29213, read-out: MIC, 29213
In short: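 Broth microdilution against S. aureus 29213, E. coli 25922 and hypersensitive E. coli BAS849. MIC in μg/mL is the lowest drug concentration preventing macroscopically visible growth under test conditions.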

E. coli 25922 = assay: as above; format: cell-based, Escherichia coli; conditions: Escherichia coli; microbroth dilution; control Gram-negative E. coli 25922 strain; read-out: MIC, 25922
In short: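 Potency is reported as minimum inhibitory concentration in μg/mL, determined by broth microdilution as the lowest level of compound that stops growth visible to the eye.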

E. coli LZ3111 = assay: Antibacterial activity, MIC, quinolone resistant strain (Table 2); format: cell-based; conditions: Escherichia coli, LZ3111, read-out: MIC LZ3111
In short: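 MIC values (μg/mL) came from a microbroth dilution assay, scored as the lowest drug concentration at which no growth was visible by eye.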

E. coli ELZ4000 = assay: Antibacterial activity, MIC, multi-drug resistant clinical isolate (Table 3); format: cell-based; conditions: Escherichia coli, ELZ4000, read-out: MIC ELZ4000
Description: (§1) The antibacterial activity from a microbroth dilution method may be presented as the minimum inhibitory concentration (MIC in μg/mL). The MIC value is the lowest concentration of drug which prevents macroscopically visible growth under test conditions.
(§2) Antibacterial activity of test compounds against E. coli ELZ4000 and E. coli ELZ4251 multi-drug resistant clinical isolates is shown in Table 3.

E. coli ELZ4251 = assay: as above; format: cell-based; conditions: Escherichia coli
Description: as §1, §2

[3] = system: Acinetobacter baumannii (A. baumannii) BAA747; assay: Antibacterial activity, MIC (Table 4); format: cell-based; conditions: A. baumannii BAA747, read-out: MIC, BAA747
In short: (§3)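 Activity was measured by microbroth dilution. The MIC, in μg/mL, is the lowest drug concentration that prevents macroscopically visible growth under the test conditions. The resistant strains are multi-drug resistant clinical isolates.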

[4] = system: Klebsiella pneumoniae (K. pneumoniae) 35657; assay: Antibacterial activity, MIC (Table 4); format: cell-based; conditions: K. pneumoniae 35657, read-out: MIC, 35657
In short: as §3

A. baumannii MXX2240 = assay: Antibacterial activity, MIC, resistant strain (Table 4); format: cell-based; conditions: Acinetobacter baumannii, MXX2240; resistant A. baumannii MMX2240, multi-drug resistant clinical isolate; read-out: MIC, MMX2240
In short: as §3

K. pneumoniae MXX1232 = assay: as above; format: cell-based; conditions: Klebsiella pneumoniae, MXX1232; resistant K. pneumoniae MMX1232, multi-drug resistant clinical isolate; read-out: MIC, MMX1232
In short: as §3

[5] = system: Pseudomonas aeruginosa (P. aeruginosa) 27853; assay: Antibacterial activity, MIC (Table 5); format: cell-based; conditions: P. aeruginosa 27853, read-out: MIC, 27853
In short: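 Values are MICs in μg/mL, read as the lowest concentration at which no growth is visible by eye. They were determined by a microbroth dilution method.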

Structure (SMILES)	MIC [1]	MIC [2]	MIC (E. coli 25922)	MIC (E. coli LZ3111)	MIC (E. coli ELZ4000)	MIC (E. coli ELZ4251)	MIC [3]	MIC [4]	MIC (A. baumannii MXX2240)	MIC (K. pneumoniae MXX1232)	MIC [5]
CCc1cc(C(=O)O)c(=O)[nH]c1-c1ccc2c(c1)cc(CCN(C)C)n2C [Cpd 161, 6-(2-(2-(dimethylamino)ethyl)-1-methyl-1H-indol-5-yl)-5-ethyl-2-oxo-1,2-dihydropyridine-3-carboxylic acid]	< 1 µg/mL	12.5 to 150 µg/mL (≈ 34 to 408 µM)	< 1 µg/mL	12.5 to 150 µg/mL (≈ 34 to 408 µM)	12.5 to 150 µg/mL (≈ 34 to 408 µM)	12.5 to 150 µg/mL (≈ 34 to 408 µM)	3.5 to 12.5 µg/mL (≈ 9.53 to 34 µM)	< 1 µg/mL	12.5 to 150 µg/mL (≈ 34 to 408 µM)	12.5 to 150 µg/mL (≈ 34 to 408 µM)	3.5 to 12.5 µg/mL (≈ 9.53 to 34 µM)
CCc1c(-c2ccc3c(c2)cc(CN2CC(CO)C2)n3C)[nH]c(=O)c(C(=O)O)c1O [Cpd 271, 5-ethyl-4-hydroxy-6-(2-((3-(hydroxymethyl)azetidin-1-yl)methyl)-1-methyl-1H-indol-5-yl)-2-oxo-1,2-dihydropyridine-3-carboxylic acid]	< 1 µg/mL	12.5 to 150 µg/mL (≈ 30.4 to 365 µM)	< 1 µg/mL	3.5 to 12.5 µg/mL (≈ 8.51 to 30.4 µM)	12.5 to 150 µg/mL (≈ 30.4 to 365 µM)	3.5 to 12.5 µg/mL (≈ 8.51 to 30.4 µM)	1 to 3.5 µg/mL (≈ 2.43 to 8.51 µM)		12.5 to 150 µg/mL (≈ 30.4 to 365 µM)	12.5 to 150 µg/mL (≈ 30.4 to 365 µM)	3.5 to 12.5 µg/mL (≈ 8.51 to 30.4 µM)
CCc1cc(C(=O)O)c(=O)[nH]c1-c1ccc2c(c1)cc(CCN1CCCCC1)n2C [Cpd 160, 5-ethyl-6-(1-methyl-2-(2-(piperidin-1-yl)ethyl)-1H-indol-5-yl)-2-oxo-1,2-dihydropyridine-3-carboxylic acid]	< 1 µg/mL	12.5 to 150 µg/mL (≈ 30.7 to 368 µM)	< 1 µg/mL	12.5 to 150 µg/mL (≈ 30.7 to 368 µM)	12.5 to 150 µg/mL (≈ 30.7 to 368 µM)	12.5 to 150 µg/mL (≈ 30.7 to 368 µM)	1 to 3.5 µg/mL (≈ 2.45 to 8.59 µM)	< 1 µg/mL	12.5 to 150 µg/mL (≈ 30.7 to 368 µM)	12.5 to 150 µg/mL (≈ 30.7 to 368 µM)	12.5 to 150 µg/mL (≈ 30.7 to 368 µM)
CCc1cc(C(=O)O)c(=O)[nH]c1-c1ccc2c(c1)cc(CN1CCC[C@@H]1CO)n2C [Cpd 132, (R)-5-ethyl-6-(2-((2-(hydroxymethyl)pyrrolidin-1-yl)methyl)-1-methyl-1H-indol-5-yl)-2-oxo-1,2-dihydropyridine-3-carboxylic acid]	< 1 µg/mL	12.5 to 150 µg/mL (≈ 30.5 to 366 µM)	< 1 µg/mL	12.5 to 150 µg/mL (≈ 30.5 to 366 µM)	12.5 to 150 µg/mL (≈ 30.5 to 366 µM)	12.5 to 150 µg/mL (≈ 30.5 to 366 µM)	3.5 to 12.5 µg/mL (≈ 8.55 to 30.5 µM)	< 1 µg/mL	12.5 to 150 µg/mL (≈ 30.5 to 366 µM)	12.5 to 150 µg/mL (≈ 30.5 to 366 µM)	12.5 to 150 µg/mL (≈ 30.5 to 366 µM)
Cc1c(-c2ccc3c(c2)cc(CN2CCCC2)n3C)[nH]c(=O)c(C(=O)O)c1O [Cpd 313, 4-hydroxy-5-methyl-6-(1-methyl-2-(pyrrolidin-1-ylmethyl)-1H-indol-5-yl)-2-oxo-1,2-dihydropyridine-3-carboxylic acid]	< 1 µg/mL	12.5 to 150 µg/mL (≈ 32.8 to 393 µM)	3.5 to 12.5 µg/mL (≈ 9.18 to 32.8 µM)	1 to 3.5 µg/mL (≈ 2.62 to 9.18 µM)	3.5 to 12.5 µg/mL (≈ 9.18 to 32.8 µM)	1 to 3.5 µg/mL (≈ 2.62 to 9.18 µM)	3.5 to 12.5 µg/mL (≈ 9.18 to 32.8 µM)		1 to 3.5 µg/mL (≈ 2.62 to 9.18 µM)	12.5 to 150 µg/mL (≈ 32.8 to 393 µM)	12.5 to 150 µg/mL (≈ 32.8 to 393 µM)
CCc1cc(C(=O)O)c(=O)[nH]c1-c1ccc2c(c1)cc(CCN1CCCC1)n2C [Cpd 159, 5-ethyl-6-(1-methyl-2-(2-(pyrrolidin-1-yl)ethyl)-1H-indol-5-yl)-2-oxo-1,2-dihydropyridine-3-carboxylic acid]	< 1 µg/mL	12.5 to 150 µg/mL (≈ 31.8 to 381 µM)	< 1 µg/mL	12.5 to 150 µg/mL (≈ 31.8 to 381 µM)	12.5 to 150 µg/mL (≈ 31.8 to 381 µM)	12.5 to 150 µg/mL (≈ 31.8 to 381 µM)	3.5 to 12.5 µg/mL (≈ 8.89 to 31.8 µM)	< 1 µg/mL	12.5 to 150 µg/mL (≈ 31.8 to 381 µM)	12.5 to 150 µg/mL (≈ 31.8 to 381 µM)	3.5 to 12.5 µg/mL (≈ 8.89 to 31.8 µM)
CCc1cc(C(=O)O)c(=O)[nH]c1-c1ccc2c(c1)cc(CN1CCCCC1)n2C [Cpd 133, 5-ethyl-6-(1-methyl-2-(piperidin-1-ylmethyl)-1H-indol-5-yl)-2-oxo-1,2-dihydropyridine-3-carboxylic acid]	< 1 µg/mL	12.5 to 150 µg/mL (≈ 31.8 to 381 µM)	< 1 µg/mL	12.5 to 150 µg/mL (≈ 31.8 to 381 µM)	12.5 to 150 µg/mL (≈ 31.8 to 381 µM)	12.5 to 150 µg/mL (≈ 31.8 to 381 µM)	1 to 3.5 µg/mL (≈ 2.54 to 8.89 µM)	< 1 µg/mL	12.5 to 150 µg/mL (≈ 31.8 to 381 µM)	12.5 to 150 µg/mL (≈ 31.8 to 381 µM)	12.5 to 150 µg/mL (≈ 31.8 to 381 µM)

— patent US9409905B2, “Antibacterial compounds and methods for use” (PTC THERAPEUTICS, INC., priority 2011, dated 2016)
